Where “and” joins values, the source holds several entries; their conditions need not be identical. Equal entries are not always repeated.
Experiments:
CIR-A2 cells = test: CTL activity of PSA-OP specific T cell lines against peptide pulsed CIR-A2 cells; assay type: cell-based, human; conditions: effector T/PSA-OP-1; 50 μg/ml peptide for 3 h; 18 h CTL assay; E:T ratio 25:1; No peptide 7.9(2.7)
Protocol: Peripheral blood mononuclear cells (PBMCs) were obtained from heparinized blood of healthy HLA-A2 donors using a lymphocyte separation medium gradient (Organon Technika, Durham, N.C.). The mononuclear cell fraction was washed 3 times and PBMCs were resuspended in complete medium: AIM V (Life Technologies, Inc.) supplemented with 5% human AB serum (Valley Biomedical, Winchester, Va.), 2 mM glutamine, 100 U/ml of penicillin, and 100 μg/ml of streptomycin (GIBCO). Cells (2×10^5) in complete medium in a volume of 100 μl were put into each well of a 96-well flat-bottom assay plate (Corning, Costar Corp., Cambridge, Mass.). Peptides were added to cultures at a final concentration of […]. Cultures were incubated for 5 days at 37° C. in a humidified atmosphere containing 5% CO2. […]
Various target cells were labeled with 50 μCi of ^111In-oxyquinoline (Medi-Physics Inc., Arlington, Ill.) for 15 minutes at room temperature. […] Determinations were carried out in triplicate and standard deviations were calculated. […] Specific Lysis was calculated using the following formula: % of Specific Release=observed release(cpm)−spontaneous release(cpm) total releae(cpm)−spontaneous release(cpm)×100
Spontaneous release was determined from wells to which 100 μl of complete medium, instead of effector cells was added. Total releasable radioactivity was obtained after treatment of target cells with 2.5% Triton X-100.

[1] = system: PBMC from normal healthy donors expressing the HLA A2 class 1 allele; test: Establishment of human T cell lines by pulsing PBMC with peptide and IL-2; assay type: cell-based; conditions: donors with T cell line / donors tested; PBMC pulsed with peptide and IL-2
Description: Cytotoxic T-cells specific for PSA can be established from peripheral blood mononuclear cells (PBMC) obtained from a host immunized as discussed above. For example, PBMC can be separated by using Lymphocyte Separation Medium gradient (Organon Teknika, Durham, N.C., USA) as previously described [Boyum et al, Scand J. Clin Lab Invest 21:77-80 (1968)]. Washed PBMC are resuspended in a complete medium, for example, RPMI 1640 (GIBCO) supplemented with 10% pool human AB serum (Pel-Freeze Clinical System, Brown Dear, Wisc., USA), 2 mM glutamine, 100 U/ml penicillin and 100 μg/ml of streptomycin (GIBCO). PBMC at a concentration of about 2×10^5 cells in complete medium in a volume of, for example 100 μl are added into each well of a 96-well flat-bottom assay plate (Costar, Cambridge, Mass., USA). The antigen or peptides are added into the cultures in a final concentration of about 50 μg/ml and incubated at 37° C. in a humidified atmosphere containing 5% CO2 for 5 days. After removal of peptide containing media, the cultures are provided with fresh human IL-2 (10 U/ml) after 5 days and replenished with IL-2 containing medium every 3 days. Primary cultures are restimulated with the same peptide (50 μg/ml) on day 16. 5×10^5 irradiated (4,000 rad) autologous PBMC are added in a volume of about 50 μl complete medium as antigen-presenting cells (APC). […]

[2] = system: LNCAP PSA expressing human prostate cancer cell line; test: Cytotoxic assay of PSA peptide specific T cells against LNCAP (Example III); assay type: cell-based; conditions: T-Donor A T-cell line; 24 hour assay, E:T ratio 25:1; listed as 141-150
Description: Four of the T cell lines derived from three different individuals were then assays for their ability to lyse human cells (Table 9). […] No lysis was seen using the PSA negative human colon cancer cell line COLO-205. While 80% lysis was seen using the LNCAP PSA expressing human prostate cancer cell line. When employing the NK target K562, which measures non-specific lysis due to NK cell activity, only 23% lysis was obtained. Similar results were seen employing a different T cell line obtained from the same patient which was derived from pulsing with PSA peptide 154-163. Two additional T cell lines which were derived from peptide 154-163 were also analyzed. One was from a normal donor (T-1538) and one was from a prostate cancer patient (T-PC2; T Donor C).

Sequence: FLTPKKLQCV [PSA-1, ID No. 1]
- % of Specific release (SD), CIR-A2 cells pulsed with the peptide (CIR-A2 cells): 8.4(4.0) %
- T cell lines established from normal donors [1]: 5/6
- % specific release (lysis), LNCAP [2]: 80% and 80^b %

Source: patent US20050196806A1, “Prostate specific antigen oligoepitope peptide” (The Government of the USA, as represented by the Secretary, …, priority 1996, published 2005)
